Results published in patent publication US20240307362A1 (priority 2019, published 2024).
Where two headings read alike, the source gives them in different places.

Columns and labels:
Assay type in all cases: cell-based
[1] = tested on: Ba/F3-EGFR-insSVD; experiment: Ba/F3 cell survival assay, EGFR-insSVD
Outline: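 Ba/F3 cells stably expressing WT EGFR or EGFR-insSVD via retrovirus, grown without IL-3 on 10 ng/mL EGF, plated at 4000 cells/well. Compound exposure 48 h at 37 °C; viability read by CellTiter-Glo luminescence.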

[2] = tested on: Ba/F3-EGFR-D770_N771insNPG; experiment: Ba/F3 cell survival assay, EGFR D770_N771insNPG; details: Mus musculus, BaF3, 48 h, read-out: BA/F3 (insNPG) IC50
Method: (§1) 293T cells from ATCC were transfected with pBABEpuro expression constructs for mutant EGFR (V769_D770insASV, D770_N771insNPG, N771_P772insH, H773_V774insNPH, E746_A750del, L858R, D770_N771 insSVD C797S, E746_A750del C797S, L858R C797S, L861Q) or mutant ERBB2 (A775_G776insYVMA) and pCL-Eco packaging vector using Fugene-6 transfection reagent from Promega. Plates were incubated at 37° C. for 48 h. Retrovirus was harvested by filtering the media supernatant through a 0.45 μm filter.
(§2) Ba/F3 cells purchased from DSMZ were grown in RPMI+10% FBS+10 ng/mL IL-3 and infected with filtered retroviral supernatant at a 1:2 dilution. Polybrene was added to a concentration of 8 μg/mL, plates were spun for 90 min, and incubated overnight at 37° C. 2 μg/mL puromycin was added to the infected cells 24 h after infection and cells were continually grown in the presence of puromycin and 10 ng/mL IL-3. Following stably expressing Ba/F3 cell lines were generated: Ba/F3-EGFR-V769_D770insASV, Ba/F3-EGFR-D770_N771insNPG, Ba/F3-EGFR-N771_P772insH, Ba/F3-EG, Ba/F3-EGFR-H773_V774insNPH, Ba/F3-EGFR-E746_A750del, Ba/F3-EGFR-L858R, Ba/F3-EGFR-D770_N771 insSVD C797S, Ba/F3-EGFR-E746_A750del C797S, Ba/F3-EGFR-L858R C797S, Ba/F3-EGFR L861Q and Ba/F3-ERBB2-A775_G776insYVMA (Ba/F3—vector-control).
(§3) For cell survival assays, Ba/F3 cells were grown to a density of 1-2 million cells per mL, spun down and resuspended in media without IL-3, and replated at a concentration 200,000-500,000 cells per mL. The cells ectopically expressing WT EGFR plated with 10 ng/mL Millipore Culture grade EGF and Ba/F3 cells containing mutant EGFR or Mutant ERBB2 were cultivated without EGF. The cells ectopically expressing pBABEpuro empty vector were plated with 10 ng/mL IL-3.
(§4) 2 days later, cells were plated in 50 μL in a 384 well plate at a concentration of 4000 cells per well for cells assayed in the absence of IL-3 and 2000 cells per well for cells assayed in the presence of IL-3. 100 nL of compound was added to each well using a 100 nL pin head, and plates were incubated at 37° C. for 48 h.
(§5) Cell viability was measured by adding 20 μL of Cell Titer-Glo Luminescent Cell Viability Reagent diluted 1:3 in PBS. Plates were sealed with Perkin Elmer Top-Seal, inverted several times to mix, and immediately centrifuged at 1000 rpm for 2 min. Plates were incubated in low light conditions for 8-10 min and luminescence was measured.

[3] = tested on: Ba/F3-EGFR-H773_V774insNPH; experiment: Ba/F3 cell survival assay, EGFR H773_V774insNPH; details: Ba/F3 EGFR-H773-V774ins_NPH, 48 h, read-out: BA/F3 (EGFR H773— V774insNPH) IC50
Method: as §1, §2, §3, §4, §5

[4] = tested on: Ba/F3-EGFR-E746_A750del; experiment: Ba/F3 cell survival assay, EGFR E746_A750del; details: 48 h, read-out: BA/F3 (EGFR E746_A750del) IC50
Method: as §1, §2, §3, §4, §5

[5] = tested on: Ba/F3-EGFR-L858R; experiment: Ba/F3 cell survival assay, EGFR L858R; details: 48 h, read-out: BA/F3 (EGFR L858R) IC50
Method: as §1, §2, §3, §4, §5

[6] = tested on: Ba/F3-EGFR L861Q; experiment: Ba/F3 cell survival assay, EGFR L861Q; details: 48 h, read-out: BA/F3 (EGFR L861Q) IC50
Method: as §1, §2, §3, §4, §5

[7] = tested on: Ba/F3-EGFR-D770_N771 insSVD C797S; experiment: Ba/F3 cell survival assay, EGFR D770_N771insSVD C797S; details: Ba/F3 EGFR-D770-N771ins_SVD, 48 h, read-out: BA/F3 (EGFR 0770_N771 insSVD C797S) IC50
Method: as §1, §2, §3, §4, §5

[8] = tested on: Ba/F3-EGFR-L858R C797S; experiment: Ba/F3 cell survival assay, EGFR L858R C797S; details: 48 h, read-out: BA/F3 (EGFR L858R C797S) IC50
Method: as §1, §2, §3, §4, §5

[9] = tested on: PC9 cells; experiment: PC9 cell proliferation assay (EGFRex19del); details: Homo sapiens, PC-9, 72 h, read-out: PC9 IC50
Method: PC9 cells were purchased from ATCC. 400 PC9 cells per well were seeded in growth medium (DMEM, 10% FCS) in a 384-well plate (CORNING #3571). Seed reference plate for time zero determination on the same day. All plates were incubated overnight at 37° C. After 24 hours, test compound were added in 7-step dilution using HP Compound printer and incubated at 37° C. for 72 h. After 3 days, 30 μL/well CTG solution (Promega Cell Titer Glo solution; catalog #G755B and G756B) were added to each well, incubated for 30 minutes and the plate were read on PheraStar. Proliferation is calculated after subtracting time zero luminescence values from day 4 values and comparing to untreated wells. The IC50 values were determined using the four parameter fit.

[10] = read-out: BA/F3 (insSVD) IC50, cell viability, Cell Titer-Glo, 48 h, with 10 ng/mL EGF, without IL-3

| Structure (SMILES) | IC50 [1, 10] [nM] | IC50 [2] [nM] | IC50 [3] [nM] | IC50 [4] [nM] | IC50 [5] [nM] | IC50 [6] [nM] | IC50 [7] [nM] | IC50 [8] [nM] | IC50 [9] [nM] | IC50 ([1]; Mus musculus, BaF3, 48 h, read-out: BA/F3 (insSVD) IC50, cell viability, Cell Titer-Glo, 48 h, with 10 ng/mL EGF, without IL-3) [nM] |
| --- | --- | --- | --- | --- | --- | --- | --- | --- | --- | --- |
| COc1c(Cl)cccc1Nc1c(-c2ccncc2OCCC2CCO2)[nH]c2c1C(=O)NCC2 (single isomer, unassigned; (-)) [Example 26, (−)-3-(3-chloro-2-methoxyanilino)-2-{3-[2-(oxetan-2-yl)ethoxy]pyridin-4-yl}-1,5,6,7-tetrahydro-4H-pyrrolo[3,2-c]pyridin-4-one] | 7.31 | 7.64 | 29.6 | 0.27 | 0.813 | 6.51 | 13.7 | 1 | 1.4 | – |
| COc1c(Cl)cccc1Nc1c(-c2ccncc2OC[C@@H]2CCO2)[nH]c2c1C(=O)NCC2 [Example 2, 3-(3-chlor-2-methoxyanilino)-2-{3-[(2S)-oxetan-2-ylmethoxy]pyridin-4-yl}-1,5,6,7-tetrahydro-4H-pyrrolo[3,2-c]pyridin-4-on] | – | 9.76 | 30.1 | 0.328 | 1.2 | 16.8 | 17.5 | 1.53 | 2.31 | 10.3 |
| COc1c(Cl)cccc1Nc1c(-c2ccncc2OCC2(C)CCO2)[nH]c2c1C(=O)NCC2 (single isomer, unassigned; (+)) [Example 48, (+)-3-(3-chloro-2-methoxyanilino)-2-{3-[(2-methyloxetan-2-yl)methoxy]pyridin-4-yl}-1,5,6,7-tetrahydro-4H-pyrrolo[3,2-c]pyridin-4-one] | 9.65 | 8.52 | 38.3 | 0.34 | 1.28 | 14.9 | 16.7 | 1.28 | 2.1 | – |
| COc1c(Cl)cccc1Nc1c(-c2ccncc2OCC2OCC2(C)C)[nH]c2c1C(=O)NCC2 (single isomer, unassigned; (+)) [Example 50, (+)-3-(3-chloro-2-methoxyanilino)-2-{3-[(3,3-dimethyloxetan-2-yl)methoxy]pyridin-4-yl}-1,5,6,7-tetrahydro-4H-pyrrolo[3,2-c]pyridin-4-one] | 8.76 | 9.18 | 45.4 | 0.519 | 1.62 | 21.3 | 35.1 | 2.92 | 2.3 | – |
